US20250003972A1, “A METHOD OF DETERMINING THE PRESENCE OF AN ANALYTE IN A SAMPLE” (Valitacell Limited, priority 2021, published 2025)

System: non-monomer IgG
Test: DAOTA fluorescence polarisation (FP) assay: HMWS IgG (non-monomer) spiked into monomer IgG in culture media
Type: binding
Conditions: cell culture media; FP (mP) signal vs percentage non-monomer
Description: Non-monomer IgG was sourced internally. This was obtained by size exclusion chromatography from Chinese Hamster Ovary (CHO) cell supernatant (this is a naturally occurring non-monomer IgG).
FP readings were made using an BMG Pherastar plate reader (BMG, […], Germany) in black half area NBS plates in a total of 120 ul (Corning, New York, USA).
For DAOTA FP assays, high molecular weight species (HMWS) of IgG (non-monomer) was spiked into monomer IgG in various proportions in 120 ul total of culture media (CD-CHO, ThermoFisher, UK) at a constant at a concentration of 200 mg/L. 0.1 ug of an N′-propyl, N-propyl derivative of diazaoxatriangulenium (N′PNP-DAOTA) was added, and the polarization signal was measured after 5 minutes incubation in the dark.

binding to non-monomer IgG / IgG aggregates (FP polarisation signal)	Compound
binds to non-monomer IgG	CCCn1c2cccc3oc4cccc5c4[c+](c32)c2c1cccc2n5CCC [N′PNP-DAOTA, N′-propyl, N-propyl derivative of diazaoxatriangulenium]
did not bind to IgG aggregates	N-butanoic acid aza-di-oxa-triangulenium [N-Phenyl-ADOTA]
